# According to patent US10294202B2, “Pyrrolidinones as herbicides” (FMC Corporation, priority 2013, dated 2019):
# Tests used:
# Assay in all cases: Test D pre-/postemergence herbicide test
# blackgrass = format: in vivo, Alopecurus myosuroides; settings: for Plant response rating: Blackgrass, scale 0 to 100; for Plant response rating, Blackgrass: scale 0 to 100 (0 no effect, 100 complete control)
# Excerpt: (§1) Seeds of plant species selected from bluegrass (annual bluegrass, Poa annua), blackgrass (Alopecurus myosuroides), canarygrass (littleseed canarygrass, Phalaris minor), chickweed (common chickweed, Stellaria media), galium (catchweed bedstraw, Galium aparine), bromegrass, downy (downy bromegrass, Bromus tectorum), field poppy (Papaver rhoeas), field violet (Viola arvensis), foxtail, green (green foxtail, Setaria viridis), deadnettle (henbit deadnettle, Lamium amplexicaule), ryegrass, Italian (Italian ryegrass, Lolium multiflorum), kochia (Kochia scoparia), lambsquarters (Chenopodium album), oilseed rape (Brassica napus), pigweed (Amaranthus retroflexus), chamomile (scentless chamomile, Matricaria inodora), Russian thistle (Salsola kali), speedwell (bird's-eye speedwell, Veronica persica), barley, spring (spring barley, Hordeum vulgare), wheat, spring (spring wheat, Triticum aestivum), buckwheat, wild (wild buckwheat, Polygonum convolvulus), mustard, wild (wild mustard, Sinapis arvensis), oat, wild (wild oat, Avena fatua), radish, wild (wild radish, Raphanus raphanistrum), […]), barley, winter (winter barley, Hordeum vulgare), and wheat, winter (winter wheat, Triticum aestivum) were planted into a silt loam soil and treated preemergence with test chemicals formulated in a non-phytotoxic solvent mixture which included a surfactant. At the same time, these species were planted in pots containing Redi-Earth® planting medium (Scotts Company, 14111 Scottslawn Road, Marysville, Ohio 43041) comprising spaghnum peat moss, vermiculite, wetting agent and starter nutrients and treated with postemergence applications of the test chemicals formulated in the same manner. Plants ranged in height from 2 to 18 cm (1- to 4-leaf stage). Treated plants and controls were maintained in a controlled growth environment for 7 to 21 days after which time all species were compared to controls and visually evaluated. Plant response ratings, summarized in Table D, are based on a scale of 0 to 100 where 0 is no effect and 100 is complete control. A dash (-) response means no test result.
# barley, winter = format: in vivo, Hordeum vulgare; settings: for Plant response rating: Barley, Winter, scale 0 to 100; for Plant response rating, Barley, Winter: scale 0 to 100 (0 no effect, 100 complete control)
# Excerpt: as §1
# barley, spring = format: in vivo, Hordeum vulgare; settings: for Plant response rating: Barley, Spring, scale 0 to 100; for Plant response rating, Barley, Spring: scale 0 to 100 (0 no effect, 100 complete control)
# Excerpt: as §1
# pigweed = format: in vivo, Amaranthus retroflexus; settings: for Plant response rating: Postemergence, Pigweed, scale 0 to 100; for Plant response rating, Pigweed: Preemergence, scale 0 to 100 (0 no effect, 100 complete control)
# Excerpt: as §1
# bluegrass = format: in vivo, Poa annua; settings: for Plant response rating: Bluegrass, scale 0 to 100; for Plant response rating, Bluegrass: scale 0 to 100 (0 no effect, 100 complete control)
# Excerpt: as §1
# wheat, winter = format: in vivo, Triticum aestivum; settings: for Plant response rating: Postemergence, Wheat, Winter, scale 0 to 100; for Plant response rating, Wheat, Winter: Preemergence, scale 0 to 100 (0 no effect, 100 complete control)
# Excerpt: as §1
# wheat, spring = format: in vivo, Triticum aestivum; settings: for Plant response rating: Postemergence, Wheat, Spring, scale 0 to 100; for Plant response rating, Wheat, Spring: Preemergence, scale 0 to 100 (0 no effect, 100 complete control)
# Excerpt: as §1
smiles,measurement,setting,value
O=C1NCC(c2ccc(F)c(F)c2)C1C(=O)Nc1ccccc1C(F)(F)F (racemic) [Compound 6],Plant response rating,"blackgrass; Postemergence, 16 g ai/ha",0
same,Plant response rating,"blackgrass; Postemergence, 31 g ai/ha",0
same,Plant response rating,"blackgrass; Postemergence, 62 g ai/ha",5
same,Plant response rating,"blackgrass; Postemergence, 125 g ai/ha",5
same,Plant response rating,"blackgrass; Postemergence, 250 g ai/ha",10
same,"Plant response rating, Blackgrass","blackgrass; Preemergence, 62 g ai/ha",0
same,"Plant response rating, Blackgrass","blackgrass; Preemergence, 16 g ai/ha",0
same,"Plant response rating, Blackgrass","blackgrass; Preemergence, 31 g ai/ha",0
same,Plant response rating,"blackgrass; Preemergence, 125 g ai/ha",0
same,Plant response rating,"blackgrass; Preemergence, 250 g ai/ha",0
same,Plant response rating,"barley, winter; Postemergence, 16 g ai/ha",0
same,Plant response rating,"barley, winter; Postemergence, 31 g ai/ha",0
same,Plant response rating,"barley, winter; Postemergence, 62 g ai/ha",0
same,Plant response rating,"barley, winter; Postemergence, 125 g ai/ha",0
same,Plant response rating,"barley, winter; Postemergence, 250 g ai/ha",0
same,"Plant response rating, Barley, Winter","barley, winter; Preemergence, 62 g ai/ha",0
same,"Plant response rating, Barley, Winter","barley, winter; Preemergence, 16 g ai/ha",0
same,"Plant response rating, Barley, Winter","barley, winter; Preemergence, 31 g ai/ha",0
same,Plant response rating,"barley, winter; Preemergence, 125 g ai/ha",0
same,Plant response rating,"barley, winter; Preemergence, 250 g ai/ha",20
same,Plant response rating,"barley, spring; Postemergence, 16 g ai/ha",0
same,Plant response rating,"barley, spring; Postemergence, 31 g ai/ha",0
same,Plant response rating,"barley, spring; Postemergence, 62 g ai/ha",0
same,Plant response rating,"barley, spring; Postemergence, 125 g ai/ha",0
same,Plant response rating,"barley, spring; Postemergence, 250 g ai/ha",0
same,"Plant response rating, Barley, Spring","barley, spring; Preemergence, 62 g ai/ha",0
same,"Plant response rating, Barley, Spring","barley, spring; Preemergence, 16 g ai/ha",0
same,"Plant response rating, Barley, Spring","barley, spring; Preemergence, 31 g ai/ha",0
same,Plant response rating,"barley, spring; Preemergence, 125 g ai/ha",0
same,Plant response rating,"barley, spring; Preemergence, 250 g ai/ha",10
same,Plant response rating,pigweed; 16 g ai/ha,0
same,Plant response rating,pigweed; 31 g ai/ha,10
same,Plant response rating,pigweed; 62 g ai/ha,10
same,Plant response rating,pigweed; 125 g ai/ha,20
same,Plant response rating,pigweed; 250 g ai/ha,20
same,"Plant response rating, Pigweed",pigweed; 62 g ai/ha,0
same,"Plant response rating, Pigweed",pigweed; 125 g ai/ha,0
same,"Plant response rating, Pigweed",pigweed; 16 g ai/ha,0
same,"Plant response rating, Pigweed",pigweed; 31 g ai/ha,0
same,"Plant response rating, Pigweed",pigweed; 250 g ai/ha,0
same,Plant response rating,"bluegrass; Postemergence, 16 g ai/ha",0
same,Plant response rating,"bluegrass; Postemergence, 31 g ai/ha",0
same,Plant response rating,"bluegrass; Postemergence, 62 g ai/ha",0
same,Plant response rating,"bluegrass; Postemergence, 125 g ai/ha",0
same,Plant response rating,"bluegrass; Postemergence, 250 g ai/ha",0
same,"Plant response rating, Bluegrass","bluegrass; Preemergence, 62 g ai/ha",0
same,"Plant response rating, Bluegrass","bluegrass; Preemergence, 16 g ai/ha",0
same,"Plant response rating, Bluegrass","bluegrass; Preemergence, 31 g ai/ha",0
same,Plant response rating,"bluegrass; Preemergence, 125 g ai/ha",0
same,Plant response rating,"bluegrass; Preemergence, 250 g ai/ha",0
same,Plant response rating,"wheat, winter; 16 g ai/ha",0
same,Plant response rating,"wheat, winter; 31 g ai/ha",0
same,Plant response rating,"wheat, winter; 62 g ai/ha",0
same,Plant response rating,"wheat, winter; 125 g ai/ha",0
same,Plant response rating,"wheat, winter; 250 g ai/ha",0
same,"Plant response rating, Wheat, Winter","wheat, winter; 62 g ai/ha",0
same,"Plant response rating, Wheat, Winter","wheat, winter; 125 g ai/ha",0
same,"Plant response rating, Wheat, Winter","wheat, winter; 16 g ai/ha",0
same,"Plant response rating, Wheat, Winter","wheat, winter; 31 g ai/ha",0
same,"Plant response rating, Wheat, Winter","wheat, winter; 250 g ai/ha",0
same,Plant response rating,"wheat, spring; 16 g ai/ha",0
same,Plant response rating,"wheat, spring; 31 g ai/ha",0
same,Plant response rating,"wheat, spring; 62 g ai/ha",5
same,Plant response rating,"wheat, spring; 125 g ai/ha",5
same,Plant response rating,"wheat, spring; 250 g ai/ha",5
same,"Plant response rating, Wheat, Spring","wheat, spring; 62 g ai/ha",0
same,"Plant response rating, Wheat, Spring","wheat, spring; 125 g ai/ha",0
same,"Plant response rating, Wheat, Spring","wheat, spring; 16 g ai/ha",0
same,"Plant response rating, Wheat, Spring","wheat, spring; 31 g ai/ha",0
same,"Plant response rating, Wheat, Spring","wheat, spring; 250 g ai/ha",0
